Assay results: article PMC7041944 (eLife, 2020)
Where two headings read alike, the source gives them in different places.

Key:
[1] = molecular target: signal sequence FLAG (ssf)-KOR, murine (kappa opioid receptor) (murine) (UniProt P33534); assay: TIR-FM recruitment of a fluorescent cytosolic protein to the plasma membrane of living cells; HEK293 cells co-expressing the fluorescent cytosolic protein and the receptor; 37 C, HBS imaging solution pH 7.4; agonists added in rising concentrations (1 nM - 10 uM) by bath application or perfusion: DynA, U69, U50, etorphine for KOR; DAMGO, etorphine, morphine, PZM21, MP for MOR; reversed by the antagonists 5'GNTI or naloxone; also with Cmpd101 (30 uM)
Sequence of UniProt P33534 (P33534 whole entry, the tested form may be a part): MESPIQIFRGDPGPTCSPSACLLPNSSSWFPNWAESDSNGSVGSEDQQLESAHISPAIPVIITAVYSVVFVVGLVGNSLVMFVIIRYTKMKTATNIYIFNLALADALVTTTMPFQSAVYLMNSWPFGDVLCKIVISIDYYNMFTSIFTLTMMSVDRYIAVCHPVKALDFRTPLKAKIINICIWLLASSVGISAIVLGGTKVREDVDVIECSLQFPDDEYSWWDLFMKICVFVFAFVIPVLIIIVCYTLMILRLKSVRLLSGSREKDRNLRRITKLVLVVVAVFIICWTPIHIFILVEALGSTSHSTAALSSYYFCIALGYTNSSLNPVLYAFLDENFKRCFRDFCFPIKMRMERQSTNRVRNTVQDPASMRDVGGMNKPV

MOR [2] = assay type: cell-based, murine
MOR [3] = assay type: cell-based, murine; remark: listed apart in the source
KOR [4] = assay type: cell-based, murine
KOR [5] = assay type: cell-based, murine; remark: listed apart in the source
KOR [6] = assay: mGs probe recruitment to KOR (TIR-FM); assay type: cell-based, murine; conditions: DynA 1 nM - 10 μM; Venus-mGs, HEK293, TIR-FM
Experimental: Live cell image series measuring protein recruitment to the plasma membrane were performed at 37°C using a Nikon Ti-E microscope equipped for through-the-objective TIR-FM with a temperature-, humidity- and CO2-controlled chamber (Okolab), objective heater, perfect focus system, and an Andor DU897 EMCCD camera. Images were obtained with a 100 × 1.49 NA Apo TIRF objective (Nikon) with solid-state lasers of 488, 561 and 647 nm (Keysight Technologies). Before imaging, receptors at the cell surface were labelled with M1 monoclonal FLAG antibody (1:1,000) conjugated to Alexa647 dye for 10 min at 37°C. Cells were then washed and live imaged in HBS imaging solution (Hepes buffered saline (HBS) with 135 mM NaCl, 5 mM KCl, 0.4 mM MgCl2,1.8 mM CaCl2, 20 mM Hepes, 5 mM d-glucose adjusted to pH 7.4 and 300–315 mOsmol/l). Agonists or antagonists were either added by bath application at concentrations indicated in the figure legends or by media perfusion. For the latter, an insert was 3D-printed and placed inside the imaging dish where it left a dead volume of about 300 μL. […]
For probing protein recruitment to the plasma membrane, HEK293 cells co-expressing the cytosolic protein of interest (mGsi, Nb33, or GRK2) and MOR or KOR were imaged using TIR-FM. […] Protein intensity during time lapse series was measured using ImageJ. […]

KOR [7] = assay type: cell-based, murine; remark: listed apart in the source
KOR [8] = assay type: cell-based, murine; remark: listed apart in the source
KOR [9] = assay type: cell-based, murine; remark: listed apart in the source

NES-Venus-mGsi (mini-G protein: Ras-like domain of Gs alpha with nine distal C-terminal residues from Gi alpha1) (designed binder)
maximum recruitment with etorphine, percent of that with DynA [1]: 67%

CC[C@@H]1CN2CC[C@]3(Nc4cccc(OC)c4C3=O)[C@@H]2C[C@@H]1/C(=C\OC)C(=O)OC [MP, mitragynine pseudoindoxyl]
Nb33 recruitment by MOR (in words) (MOR [2]): without promoting detectable recruitment
I.A.(Nb33), intrinsic activity (maximal response) (MOR [2]; SEM): 0.04±0.05
mGsi/Nb33, ratio of intrinsic activities (MOR [3]): 7.47
I.A.(mGsi), intrinsic activity (maximal response) (MOR [3]; SEM): 0.31±0.02

DAMGO, [D-Ala2, N-Me-Phe4, Gly5-ol]-Enkephalin acetate salt
I.A.(Nb33), intrinsic activity (maximal response) (MOR [2]): 1.00
I.A.(mGsi), intrinsic activity (maximal response) (MOR [3]): 1.00
mGsi/Nb33, ratio of intrinsic activities (MOR [3]): 1

Cl.Cl.NC(N)=Nc1ccc2[nH]c3c(c2c1)C[C@@]1(O)[C@H]2Cc4ccc(O)c5c4[C@@]1(CCN2CC1CC1)[C@H]3O5 [5’GNTI, GNTI dihydrochloride]
reversal of DynA-induced mGsi recruitment by KOR antagonist (KOR [4]): rapid redistribution of the biosensor back to the cytoplasm

C[C@@H](Cc1ccsc1)NC(=O)NC[C@H](Cc1ccc(O)cc1)N(C)C [PZM21]
I.A.(Nb33), intrinsic activity (maximal response) (MOR [2]; SEM): 0.27±0.05
mGsi/Nb33, ratio of intrinsic activities (MOR [3]): 2.60
I.A.(mGsi), intrinsic activity (maximal response) (MOR [3]; SEM): 0.70±0.02

Dynorphin A (1–17, DynA)
GRK2 accumulation at KOR-containing clusters (in words) (KOR [5]): specifically accumulated at the KOR-containing clusters
mGs recruitment in response to KOR activation (KOR [6]): not detectably recruited
I.A.(Nb33), intrinsic activity (maximal response) (KOR [7]): 1.00
recruitment of isolated C-terminal PH domain from GRK2 (GRK2-C-tail) (KOR [8]): similarly strong recruitment
GRK2 recruitment in cells pre-exposed to pertussis toxin (KOR [9]): significant recruitment response
I.A.(mGsi), intrinsic activity (maximal response) (KOR [4]): 1.00
mGsi/Nb33, ratio of intrinsic activities (KOR [4]): 1
